Measurements reported in US10568933B2, “Beta-casein A2 and blood glucose levels” (THE A2 MILK COMPANY LIMITED, priority 2013, dated 2020).

Tested on: SH-SY5Y cells
Experiment: Effect of BCM-7 on DNA methylation levels (MBD-seq)
Assay type: cell-based, human
Conditions: 1 μM, 4 hours
Method: Shifts in global DNA methylation patterns induced by BCM-7 were investigated using methyl-CpG binding domain (MBD) protein-enriched genome sequencing (MBD-seq) as described previously (Trivedi M., et al., Mol. Pharm. 2014), whereas mRNA translation microarray data was obtained using an Agilent V3 microarray chip, from non-treated control SH-SY5Y cells and cells treated for 4 hours with 1 μM BCM-7.
Genomic DNA was extracted from samples using the Easy DNA kit (Invitrogen K1800-01) using the appropriate protocol for cell lines. Fragmentation was performed on a Covaris S2 ultrasonicator using the following settings: duty cycle 10%, intensity 5, 200 cycles per burst during 200 sec. Fragments were obtained having an average length of 200 bp. The power mode is frequency sweeping, temperature 6-8° C., water level 12. […] DNA with an input from […] was analysed on the Agilent 2100 using a DNA 1000 chip. […] The concentrations of fragmented and captured DNA were determined on a Fluostar Optima plate reader with the Quant-iT PicoGreen dsDNA Assay Kit (Invitrogen P7589) at 480/520 nm. […]
The Illumina library amplification index protocol was used with the following alterations: 22 μl DNA was used and performed 21 cycles run. […] 1 μl was applied to an Agilent 2100 HS DNA chip and the concentration was determined by smear analysis on the Agilent 2100. […]

## beta-casomorphin-7 [BCM-7]
  Epigenetic status (DNA methylation) of genes responsible for glucose metabolism, synthesis and glucose homeostasis: altered
